Assay results reported in ChEMBL document CHEMBL1201862, “PubChem BioAssay data set” (2004).
Each block holds one molecule with its values, some of them ahead of it. The source made the active and inactive calls.

How the values were obtained:
Prothrombin = Prothrombin (Homo sapiens, UniProt P00734); experiment: Thrombin 1536 HTS Dose Response Confirmation. [Related pubchem assays: 1046 (Thrombin 1536 HTS; hits were confirmed in this assay)]; type: functional
[1] = target: T1, Carboxy-terminal domain RNA polymerase II polypeptide A small phosphatase 1 (Homo sapiens, UniProt Q9GZU7); experiment: inhibitors of CTDSP1, concentration-response testing, biochemical assay, absorbance-based, actives from ultra-high-throughput screening (AID 540297); type: functional
T1 sequence (Q9GZU7 whole entry): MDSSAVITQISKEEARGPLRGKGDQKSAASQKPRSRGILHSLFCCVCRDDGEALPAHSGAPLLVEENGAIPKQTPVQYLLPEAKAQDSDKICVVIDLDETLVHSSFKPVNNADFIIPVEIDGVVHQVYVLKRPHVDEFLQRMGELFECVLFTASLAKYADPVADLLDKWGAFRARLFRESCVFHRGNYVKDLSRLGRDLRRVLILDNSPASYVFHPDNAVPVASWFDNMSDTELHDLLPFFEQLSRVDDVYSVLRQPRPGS

[2] = target: T2, Short transient receptor potential channel 4 (Mus musculus, UniProt Q9QUQ5); experiment: mouse TRPC4 channel activators, dose response, cell-based, HEK293 TRPC4/mu-opioid, Fluo-4 calcium (AID 434937); type: functional
T2 sequence (Q9QUQ5 whole entry): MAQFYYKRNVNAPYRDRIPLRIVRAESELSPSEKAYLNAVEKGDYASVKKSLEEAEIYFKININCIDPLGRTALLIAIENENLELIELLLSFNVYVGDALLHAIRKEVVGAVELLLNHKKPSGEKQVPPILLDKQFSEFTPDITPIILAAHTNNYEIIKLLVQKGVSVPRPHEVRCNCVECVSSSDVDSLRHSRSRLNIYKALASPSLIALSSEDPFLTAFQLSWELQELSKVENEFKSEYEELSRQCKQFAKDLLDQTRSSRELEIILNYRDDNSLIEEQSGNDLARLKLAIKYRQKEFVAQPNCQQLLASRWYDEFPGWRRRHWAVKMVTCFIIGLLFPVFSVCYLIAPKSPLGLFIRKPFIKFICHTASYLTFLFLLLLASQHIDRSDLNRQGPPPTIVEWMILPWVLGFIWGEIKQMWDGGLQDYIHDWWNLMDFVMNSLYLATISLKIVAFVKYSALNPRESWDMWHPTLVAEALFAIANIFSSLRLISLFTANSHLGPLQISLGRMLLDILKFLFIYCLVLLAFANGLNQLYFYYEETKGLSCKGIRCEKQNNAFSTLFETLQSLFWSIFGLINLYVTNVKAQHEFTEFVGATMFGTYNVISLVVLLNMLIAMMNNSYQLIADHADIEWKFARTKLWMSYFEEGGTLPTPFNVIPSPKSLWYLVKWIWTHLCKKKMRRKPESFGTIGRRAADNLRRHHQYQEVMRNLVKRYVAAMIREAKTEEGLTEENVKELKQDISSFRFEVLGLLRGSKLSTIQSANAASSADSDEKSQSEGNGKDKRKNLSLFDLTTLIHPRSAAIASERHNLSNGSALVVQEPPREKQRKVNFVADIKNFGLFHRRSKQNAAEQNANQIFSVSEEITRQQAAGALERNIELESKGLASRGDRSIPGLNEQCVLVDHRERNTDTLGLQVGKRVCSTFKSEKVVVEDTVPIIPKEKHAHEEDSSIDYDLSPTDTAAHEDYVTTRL

[3] = NIH:OVCAR-3 ovarian cancer cell cytotoxicity, dose response, PAX8 inhibitor project, plate reader, dry powder samples (AID 743044); type: functional, cell-based
[4] = cytotoxicity in OVCAR8 ovarian cancer cells, dose response, PAX8 project, cell-based, plate reader, dry powder samples (AID 743197); type: functional; details: OVCAR-8
Paired box protein Pax-8 = Paired box protein Pax-8 (Homo sapiens, UniProt Q06710); experiment: inhibitors of PAX8-driven TPO luciferase reporter, dose response, RMG-I cells, cherry-pick (AID 687027); type: functional, cell-based;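 also: luciferase reporter driven by Pax8 target thyroperoxidase promoter measured by SteadyGlo luminescence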
Sequence of Paired box protein Pax-8 (Q06710 whole entry): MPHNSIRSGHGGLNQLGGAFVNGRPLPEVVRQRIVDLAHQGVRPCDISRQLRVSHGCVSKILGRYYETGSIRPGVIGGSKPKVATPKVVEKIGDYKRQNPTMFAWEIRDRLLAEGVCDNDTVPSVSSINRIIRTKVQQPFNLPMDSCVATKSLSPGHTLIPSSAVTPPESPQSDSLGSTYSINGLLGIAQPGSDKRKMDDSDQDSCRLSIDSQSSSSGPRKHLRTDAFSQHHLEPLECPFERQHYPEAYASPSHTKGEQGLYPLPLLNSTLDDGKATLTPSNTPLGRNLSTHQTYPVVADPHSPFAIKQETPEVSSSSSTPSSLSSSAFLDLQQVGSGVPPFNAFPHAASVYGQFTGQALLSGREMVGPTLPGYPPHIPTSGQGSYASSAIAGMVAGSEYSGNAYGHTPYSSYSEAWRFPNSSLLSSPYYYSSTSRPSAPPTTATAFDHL

Genome polyprotein = Genome polyprotein (dengue virus type 2, UniProt P29990); experiment: Dengue-2 NS5 methyltransferase inhibitors, primary screen, biochemical, confirmation dose response (AID 588689); type: functional
Sequence of Genome polyprotein (P29990 2492-3391 limits assumed): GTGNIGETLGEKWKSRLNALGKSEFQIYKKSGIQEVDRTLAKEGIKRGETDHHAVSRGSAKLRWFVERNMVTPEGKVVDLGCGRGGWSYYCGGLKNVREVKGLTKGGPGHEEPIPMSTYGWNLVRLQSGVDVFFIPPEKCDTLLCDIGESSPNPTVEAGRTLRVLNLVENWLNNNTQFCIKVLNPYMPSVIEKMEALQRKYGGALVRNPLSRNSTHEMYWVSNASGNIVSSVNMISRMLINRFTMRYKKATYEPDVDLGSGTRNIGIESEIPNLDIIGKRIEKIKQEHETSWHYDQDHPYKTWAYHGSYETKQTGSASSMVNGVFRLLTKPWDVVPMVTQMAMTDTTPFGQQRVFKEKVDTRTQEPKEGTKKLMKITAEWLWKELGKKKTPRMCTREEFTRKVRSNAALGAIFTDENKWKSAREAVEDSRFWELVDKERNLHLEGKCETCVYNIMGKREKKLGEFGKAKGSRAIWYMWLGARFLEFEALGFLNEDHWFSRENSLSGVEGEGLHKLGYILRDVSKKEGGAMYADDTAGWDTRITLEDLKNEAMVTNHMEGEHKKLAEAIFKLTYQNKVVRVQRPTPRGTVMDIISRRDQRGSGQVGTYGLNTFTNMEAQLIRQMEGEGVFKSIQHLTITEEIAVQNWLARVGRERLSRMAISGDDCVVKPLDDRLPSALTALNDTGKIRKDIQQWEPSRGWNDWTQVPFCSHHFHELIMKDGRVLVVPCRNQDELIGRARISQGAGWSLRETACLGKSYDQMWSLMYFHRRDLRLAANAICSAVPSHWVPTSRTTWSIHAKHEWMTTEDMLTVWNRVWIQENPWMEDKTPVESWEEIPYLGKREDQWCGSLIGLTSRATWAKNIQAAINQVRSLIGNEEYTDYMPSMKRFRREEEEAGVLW

[5] = cytotoxicity in KRAS-transformed pancreatic duct cells, primary screen, cell-based, fluorescence, HTS (AID 431); type: functional; details: Homo sapiens;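 also: cell line used: HPDE-C7K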
[6] = cytotoxicity in HPDE-C7 cells, cell-based, fluorescence, HTS (AID 430); type: functional; details: Homo sapiens
Cytochrome P450 3A4 = Cytochrome P450 3A4 (Homo sapiens, UniProt P08684);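 also: CYP3A4 tested as one member of a cytochrome P450 panel screen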
Sequence of Cytochrome P450 3A4 (P08684 whole entry): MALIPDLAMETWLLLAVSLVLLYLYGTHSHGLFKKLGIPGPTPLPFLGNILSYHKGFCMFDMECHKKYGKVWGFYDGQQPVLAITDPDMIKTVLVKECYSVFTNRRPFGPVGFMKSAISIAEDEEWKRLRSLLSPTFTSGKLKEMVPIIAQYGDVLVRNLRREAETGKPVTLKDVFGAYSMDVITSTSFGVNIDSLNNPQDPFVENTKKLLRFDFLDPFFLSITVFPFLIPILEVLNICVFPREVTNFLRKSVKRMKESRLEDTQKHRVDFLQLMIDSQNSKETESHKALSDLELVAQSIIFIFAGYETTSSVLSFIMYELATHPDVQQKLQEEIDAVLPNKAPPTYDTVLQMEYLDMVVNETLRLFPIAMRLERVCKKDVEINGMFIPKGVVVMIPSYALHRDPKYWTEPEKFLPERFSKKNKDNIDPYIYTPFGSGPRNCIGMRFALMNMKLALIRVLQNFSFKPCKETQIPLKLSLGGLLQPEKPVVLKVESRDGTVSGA

Cytochrome P450 2C9 = Cytochrome P450 2C9 (Homo sapiens, UniProt P11712)
Sequence of Cytochrome P450 2C9 (P11712 whole entry): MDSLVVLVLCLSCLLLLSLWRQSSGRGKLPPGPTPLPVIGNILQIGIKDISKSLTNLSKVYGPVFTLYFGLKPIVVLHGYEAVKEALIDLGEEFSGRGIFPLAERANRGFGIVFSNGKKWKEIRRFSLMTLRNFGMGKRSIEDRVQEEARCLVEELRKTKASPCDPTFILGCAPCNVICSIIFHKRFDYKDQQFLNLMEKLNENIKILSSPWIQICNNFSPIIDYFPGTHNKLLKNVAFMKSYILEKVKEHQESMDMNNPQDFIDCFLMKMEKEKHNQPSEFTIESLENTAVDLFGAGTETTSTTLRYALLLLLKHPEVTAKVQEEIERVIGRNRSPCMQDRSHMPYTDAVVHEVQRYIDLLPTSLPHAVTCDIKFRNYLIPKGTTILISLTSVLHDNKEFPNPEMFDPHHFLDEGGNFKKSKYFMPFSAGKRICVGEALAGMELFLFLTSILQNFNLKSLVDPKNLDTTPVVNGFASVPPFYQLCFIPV

Cytochrome P450 2C19 = Cytochrome P450 2C19 (Homo sapiens, UniProt P33261); experiment: Cytochrome panel assay with activity outcomes. Panel member name: p450-cyp2c19 Compounds with AC50 equal or less than 10 uM are considered active; type: functional; details: read-out: AC50
Sequence of Cytochrome P450 2C19 (P33261 whole entry): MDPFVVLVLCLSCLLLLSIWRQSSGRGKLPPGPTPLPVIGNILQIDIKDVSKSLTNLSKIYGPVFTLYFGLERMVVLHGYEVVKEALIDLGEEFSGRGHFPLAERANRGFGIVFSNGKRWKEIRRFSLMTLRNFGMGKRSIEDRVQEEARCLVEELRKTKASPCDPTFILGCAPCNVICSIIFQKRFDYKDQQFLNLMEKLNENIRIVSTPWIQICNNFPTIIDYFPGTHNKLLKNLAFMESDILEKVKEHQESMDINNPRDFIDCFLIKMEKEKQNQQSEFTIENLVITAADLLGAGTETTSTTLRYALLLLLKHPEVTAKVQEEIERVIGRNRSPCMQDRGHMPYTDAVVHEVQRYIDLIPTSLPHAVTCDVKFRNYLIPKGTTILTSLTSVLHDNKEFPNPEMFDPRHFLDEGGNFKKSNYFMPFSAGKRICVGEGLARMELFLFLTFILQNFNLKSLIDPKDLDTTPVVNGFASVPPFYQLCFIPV

[7] = target: T3, Corticotropin-releasing factor receptor 2/Corticotropin-releasing factor-binding protein (Homo sapiens, UniProt P24387+Q13324); experiment: activators of CRF receptor 2 with binding protein – uHTS hits, confirmation (AID 602473); type: functional; details: read-out: EC50_Mean
T3 sequence (Q13324 whole entry): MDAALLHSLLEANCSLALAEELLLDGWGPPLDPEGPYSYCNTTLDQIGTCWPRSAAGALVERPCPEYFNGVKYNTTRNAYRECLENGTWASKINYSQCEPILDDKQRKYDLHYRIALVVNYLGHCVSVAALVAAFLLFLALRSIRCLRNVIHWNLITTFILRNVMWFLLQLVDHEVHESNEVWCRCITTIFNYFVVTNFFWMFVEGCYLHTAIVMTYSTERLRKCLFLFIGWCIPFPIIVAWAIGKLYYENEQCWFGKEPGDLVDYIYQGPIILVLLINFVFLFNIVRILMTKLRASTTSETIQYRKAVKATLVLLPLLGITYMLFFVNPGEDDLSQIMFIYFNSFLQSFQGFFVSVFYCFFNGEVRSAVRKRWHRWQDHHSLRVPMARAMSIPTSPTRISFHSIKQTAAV
T3 sequence (P24387 whole entry): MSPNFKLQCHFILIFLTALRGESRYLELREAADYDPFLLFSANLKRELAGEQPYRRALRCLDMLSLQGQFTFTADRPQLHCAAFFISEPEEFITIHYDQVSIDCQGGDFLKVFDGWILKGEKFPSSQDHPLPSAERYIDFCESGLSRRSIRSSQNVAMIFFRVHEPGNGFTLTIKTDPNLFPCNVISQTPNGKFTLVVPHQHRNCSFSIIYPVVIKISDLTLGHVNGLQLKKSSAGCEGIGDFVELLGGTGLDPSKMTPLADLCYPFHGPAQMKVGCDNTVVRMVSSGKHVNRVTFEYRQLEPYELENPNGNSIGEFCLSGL

[8] = target: T3, Corticotropin-releasing factor receptor 2/Corticotropin-releasing factor-binding protein; experiment: Dose Response confirmation of uHTS hits for small molecule antagonists of the CRF-binding protein and CRF-R2 receptor complex.; type: functional; details: read-out: IC50_Mean
[9] = cytotoxicity toward NIH3T3 fibroblasts, dose response, counter-screen, cell-based, ATP luminescence, mouse fibroblasts (AID 2010); type: functional;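 also: cells exposed to compound for about 90 hours before reading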
[10] = inhibitors of intracellular T. cruzi replication, confirmation, NIH3T3 host cells, beta-gal luminescence (AID 2044); type: functional, cell-based;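 also: intracellular parasites grown in NIH/3T3 mouse fibroblasts as host cells; luminescent beta-galactosidase reporter signal from transgenic T. cruzi replicating inside host cells; inhibitors lower the luminescence signal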
[11] = target: T2, Short transient receptor potential channel 4; experiment: mouse TRPC4 channel inhibitors, dose response, cell-based, HEK293 TRPC4/mu-opioid, Fluo-4 calcium (AID 434942); type: functional;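 also: potency of inhibitors blocking the TRPC4 calcium response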
[12] = P. falciparum Dd2 growth inhibitors, dose response, SYBR Green, dry powder samples (AID 1159566); type: functional, cell-based;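 also: potency for growth inhibition with lower SYBR green DNA signal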
[13] = P. falciparum 3D7-ScDHODH growth inhibitors, dose response, SYBR Green, dry powder samples (AID 1159570); type: functional, cell-based;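 also: parasite growth measured after 72 hours of compound exposure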
[14] = P. falciparum ATP4 D1247Y mutant growth inhibitors, dose response, NITD609-resistant line, SYBR Green, dry powder (AID 1159571); type: functional, cell-based;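 also: parasites synchronized at ring stage by sorbitol before testing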
[15] = P. falciparum Dd2 growth inhibitors, dose response, SYBR Green, cherry-picked samples (AID 1159567); type: functional, cell-based
[16] = HepG2 cell cytotoxicity, dose response, cytotoxicity control for Shn3 inhibitor project, CellTiter-Glo, cherry-picked (AID 624134); type: functional, cell-based
[17] = Shn3 3'UTR reporter inhibitors, dose response, cell-based, Clone20 osteoblasts, firefly luciferase, cherry-picked (AID 624132); type: functional;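 also: firefly luciferase luminescence from reporter carrying the Shn3 3'UTR in osteoblasts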

SMILES: CCCc1c(O)nc(SCCN(CC)CC)nc1O
- EC50 [2]: 1.68 µM (active)

SMILES: C[C@H]1CN([C@@H](C)CO)S(=O)(=O)c2ccc(C#Cc3ccncc3)cc2O[C@H]1CN(C)C(=O)C1CCCCC1
- AC50 [3]: 12.9 µM (active)
- AC50 [4]: 52.3 µM (active)
- AC50 (Paired box protein Pax-8): 2.68 µM (active)

SMILES: CC(=O)Nc1nonc1-n1nnc(C(=O)NCc2ccccc2)c1C
- EC50 [5]: > 20 µM (not active)
- EC50 [6]: > 20 µM (not active)

SMILES: COc1ccc(-c2nc3cnc(N4CCNCC4)nc3n(Cc3ccc(F)cc3)c2=O)cc1
- AC50 (Cytochrome P450 3A4): 15.8 µM (inconclusive)
- AC50 (Cytochrome P450 2C9): inconclusive

SMILES: CN1CCC2(CC1)Nc1nc(SCc3ccc(Cl)cc3)nn1C1=C2CN(C)CC1
- EC50 [5]: > 20 µM (not active)
- EC50 [7]: > 53 µM (inactive)
- EC50 [6]: > 20 µM (not active)
- IC50 [8]: > 47.1 µM (inactive)

SMILES: Cc1cc(OCCCn2ccnc2)cc(C)c1Cl
- EC50 [9]: > 60 µM (not active)
- EC50 [2]: 5.31 µM (active)
- EC50 [10]: 0.852 µM (active)

SMILES: Cc1ccc(S(=O)(=O)NC(=O)N2CCC(C)CC2)cc1
- IC50 (Prothrombin): > 50 µM (not active)

SMILES: NS(=O)(=O)c1cc2c(cc1Cl)N[C@@H](CC1CCCC1)NS2(=O)=O
- AC50 (Cytochrome P450 2C9): inconclusive

SMILES: CCCN(CCC(=O)Nc1cc(OC)cc(OC)c1)CC1CC1
- EC50 [2]: 1.33 µM (active)

SMILES: Cc1cc2ncn(S(=O)(=O)N3CCOCC3)c2cc1C
- IC50 (Prothrombin): > 50 µM (not active)

SMILES: CC(C)N1CCC2(CC1)N=C(c1ccc3c(c1)OCO3)CC(c1cc(Cl)ccc1O)N2 (configuration not stated)
- EC50 [5]: 3.54 µM (active)
- EC50 [6]: 4.25 µM (active)

SMILES: COc1ccc(NC(=O)N2CCC3(CC2)CN(C(=O)C2CCC2)[C@H](CO)c2c3c3ccc(OC)cc3n2C)cc1
- AC50 [12]: 0.0967 µM (active)
- AC50 [13]: 0.0417 µM (active)
- AC50 [14]: 0.0845 µM (active)
- AC50 [15]: 0.969 µM (active)

SMILES: CN(C)c1oc(-c2ccccc2)nc1C#N
- AC50 (Cytochrome P450 2C9): inconclusive

SMILES: C[C@@H]1CCCCO[C@H](CN(C)Cc2ccccc2)[C@@H](C)CN([C@H](C)CO)C(=O)c2cc(NC(=O)c3ccccc3)ccc2O1
- AC50 [16]: > 70 µM (inactive)
- AC50 [17]: 31.2 µM (active)

SMILES: C[C@@H]1CN([C@@H](C)CO)S(=O)(=O)c2ccc(C#CC3CCCC3)cc2O[C@H]1CN(C)C(=O)Cc1ccncc1
- AC50 [12]: 0.722 µM (active)
- AC50 [13]: 2.98 µM (active)
- AC50 [14]: 1.72 µM (active)
- AC50 [15]: 1.16 µM (active)

SMILES: CC(C)N1C(=O)CC2(CC[N+](C)(CCOC(=O)C(O)(c3ccccc3)c3ccccc3)CC2)C1=O (configuration not stated)
- IC50 [1]: 6.22 µM (active)

Second part, the molecule after the results:

- IC50 (Prothrombin): 0.711 µM (active)
SMILES: O=C(c1cccs1)n1nc(-c2cccnc2)nc1NCc1ccco1

- IC50 (Prothrombin): > 50 µM (not active)
SMILES: N/C(=N\S(=O)(=O)c1ccccc1)c1ccc([N+](=O)[O-])cc1

- IC50 [1]: 6.05 µM (active)
SMILES: CCOC(=O)N(O)c1ccc(C=Cc2ccccc2)cc1

- IC50 [1]: 4.28 µM (active)
- IC50 (Genome polyprotein): 51.7 µM (active)
SMILES: CCOc1cc(/C=N/NC2=NC(=O)C(CC(=O)O)S2)ccc1OCc1ccccc1Cl (configuration not stated)

- AC50 (Cytochrome P450 2C19): 0.282 µM (inconclusive)
- AC50 (Cytochrome P450 2C9): inconclusive
SMILES: O=C(NCCc1cccs1)C1CC(c2c(Cl)cccc2Cl)=NO1 (configuration not stated)

- AC50 (Cytochrome P450 2C19): 31.6 µM (inconclusive)
- IC50 (Prothrombin): 0.986 µM (active)
SMILES: CCCC(=O)n1nc(-c2cccnc2)nc1N

- EC50 [2]: 3.35 µM (active)
SMILES: Cc1cc(Br)ccc1OCCn1ccnc1

- IC50 [1]: 11.1 µM (active)
SMILES: Cc1ccc2nc(Cl)c(C3CC(c4cccs4)=NN3C(=O)CCCC(=O)O)cc2c1 (configuration not stated)

- IC50 [1]: 7.02 µM (active)
SMILES: Cc1cc(C(=O)N/N=C/C=C/c2ccc(Br)cc2)[nH]n1

- EC50 [2]: 4.73 µM (active)
- EC50 [11]: 5.31 µM (active)
SMILES: O=C(NCc1ccccc1)C1=C[C@H](c2ccc3c(c2)OCO3)C[C@H](OCc2ccc(CO)cc2)O1
